Measured values: BindingDB's records for doi:10.1016/j.chembiol.2011.02.011 (University of Oklahoma, 2011)
Where a SMILES comes first, the peptide text is derived from it. [ ]: non-standard residue; d: D form. The star is where a group is joined. ξ: configuration not given here. ξR = N=C(N)NCCCC(N)C(=O)O; βNA = c1ccc2cc(N*)ccc2c1

Molecular target: T1, Multidrug efflux pump subunit AcrB (Escherichia coli (strain B / BL21-DE3), UniProt P31224)
T1 sequence (P31224 whole entry): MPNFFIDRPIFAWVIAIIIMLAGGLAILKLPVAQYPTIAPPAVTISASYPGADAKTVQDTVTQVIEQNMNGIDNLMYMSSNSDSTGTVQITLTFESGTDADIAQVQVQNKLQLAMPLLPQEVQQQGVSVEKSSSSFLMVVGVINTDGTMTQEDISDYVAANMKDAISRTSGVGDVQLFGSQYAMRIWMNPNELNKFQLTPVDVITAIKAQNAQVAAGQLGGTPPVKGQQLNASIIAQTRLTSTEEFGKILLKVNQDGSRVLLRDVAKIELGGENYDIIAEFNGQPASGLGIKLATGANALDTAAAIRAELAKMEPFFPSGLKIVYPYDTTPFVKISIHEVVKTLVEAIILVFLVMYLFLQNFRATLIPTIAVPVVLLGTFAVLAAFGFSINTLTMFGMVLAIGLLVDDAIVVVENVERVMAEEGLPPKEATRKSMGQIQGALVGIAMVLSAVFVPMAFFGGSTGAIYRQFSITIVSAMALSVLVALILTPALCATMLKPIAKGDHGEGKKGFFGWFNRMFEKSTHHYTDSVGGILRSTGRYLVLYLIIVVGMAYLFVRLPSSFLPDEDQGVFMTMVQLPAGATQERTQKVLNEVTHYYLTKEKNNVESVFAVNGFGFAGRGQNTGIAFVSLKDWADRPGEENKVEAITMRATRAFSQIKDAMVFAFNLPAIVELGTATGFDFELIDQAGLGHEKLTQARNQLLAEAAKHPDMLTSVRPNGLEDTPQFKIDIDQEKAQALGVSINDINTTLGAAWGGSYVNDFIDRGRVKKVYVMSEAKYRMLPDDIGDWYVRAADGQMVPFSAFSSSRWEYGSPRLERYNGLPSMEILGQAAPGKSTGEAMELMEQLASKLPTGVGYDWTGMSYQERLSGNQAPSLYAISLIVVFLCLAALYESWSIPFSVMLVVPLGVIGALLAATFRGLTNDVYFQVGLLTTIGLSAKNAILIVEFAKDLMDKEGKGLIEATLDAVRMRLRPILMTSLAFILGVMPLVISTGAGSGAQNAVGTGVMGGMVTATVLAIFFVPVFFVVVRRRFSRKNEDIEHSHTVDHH
Experiment: Binding Assay
Source text: Binding of inhibitors and substrates to immobilized AcrB.

| SMILES | Kd (pH 6) | Kd (pH 7.5) |
| --- | --- | --- |
| NC(N)=NCCCC(NC(=O)[C@@H](N)Cc1ccccc1)C(=O)Nc1ccc2ccccc2c1 (stereo partly drawn) [MC-207,110] (H-Phe-[ξR]-βNA) | 110 µM | 590 µM |
| CO[C@@H]1[C@@H](OC(N)=O)[C@@H](O)[C@H](Oc2ccc3c(O)c(NC(=O)c4ccc(O)c(CC=C(C)C)c4)c(=O)oc3c2C)OC1(C)C [Coumarin-Based, DNA Gyrase Inhibitor] |  | 530 µM |
